# Source: PubChem BioAssay AID2060501 (Molecular Pharmacology Branch, DTP, NCI, 2025)
# pIC50: −log10 of the molar value.
# Tested on: 282377-053-R-J1-PDC complex spheroids, viability
# Test: Anticancer human tumor 282377-053-R-J1-PDC patient-derived colon adenocarcinoma cell line growth inhibition [GQUAD]
# Details: for pIC50: curve of first compound; for viability, T/C: stronger effect = lower value
# Procedure, shortened: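 Tumor cells were grown as complex spheroids with HUVEC endothelial cells and mesenchymal stem cells as stroma. G-quadruplex stabilizers were combined with targeted agents over half-log dilutions from near the clinical Cmax, or from 10 microM.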
# [1] = second compound 0.0316 µM, first compound 0.0316 µM
# [2] = second compound 0.0316 µM, first compound 0.1 µM
# [3] = second compound 0.0316 µM, first compound 0.316 µM
# [4] = second compound 0.0316 µM, first compound 1 µM
# [5] = second compound 0.0316 µM, first compound 3.16 µM
# [6] = second compound 0.0316 µM, first compound 10 µM
# [7] = second compound 0.1 µM, first compound 0.0316 µM
# [8] = second compound 0.1 µM, first compound 0.1 µM
# [9] = second compound 0.1 µM, first compound 0.316 µM
# [10] = second compound 0.1 µM, first compound 1 µM
# [11] = second compound 0.1 µM, first compound 3.16 µM
# [12] = second compound 0.1 µM, first compound 10 µM
# [13] = second compound 0.316 µM, first compound 0.0316 µM
# [14] = second compound 0.316 µM, first compound 0.1 µM
# [15] = second compound 0.316 µM, first compound 0.316 µM
# [16] = second compound 0.316 µM, first compound 1 µM
# [17] = second compound 0.316 µM, first compound 3.16 µM
# [18] = second compound 0.316 µM, first compound 10 µM
# [19] = second compound 1 µM, first compound 0.0316 µM
# [20] = second compound 1 µM, first compound 0.1 µM
# [21] = second compound 1 µM, first compound 0.316 µM
# [22] = second compound 1 µM, first compound 1 µM
# [23] = second compound 1 µM, first compound 3.16 µM
# [24] = second compound 1 µM, first compound 10 µM
# [25] = second compound 3.16 µM, first compound 0.0316 µM
# [26] = second compound 3.16 µM, first compound 0.1 µM
# [27] = second compound 3.16 µM, first compound 0.316 µM
# [28] = second compound 3.16 µM, first compound 1 µM
# [29] = second compound 3.16 µM, first compound 3.16 µM
# [30] = second compound 3.16 µM, first compound 10 µM
# [31] = second compound 10 µM, first compound 0.0316 µM
# [32] = second compound 10 µM, first compound 0.1 µM
# [33] = second compound 10 µM, first compound 0.316 µM
# [34] = second compound 10 µM, first compound 1 µM
# [35] = second compound 10 µM, first compound 3.16 µM
# [36] = second compound 10 µM, first compound 10 µM
# 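Also: spheroids exposed to compounds for 7 days before readout.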
# 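For viability, T/C in this document: percent of vehicle DMSO control viability with 100% = untreated-like growth.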
structure (smiles),measurement,setting,value
COc1ccc([C@@H](O)c2cc(-c3ncnc4cc(N5CCOCC5)ccc34)c(F)cc2Cl)nn1 + Cc1cnc(CNC(=O)c2c(=O)c3ccc(N4CCCN(C)CC4)nc3n3c2sc2ccccc23)cn1,pIC50,second compound 0.0316 µM,< 5.00
same,pIC50,second compound 0.1 µM,5.08
same,pIC50,second compound 0.316 µM,5.45
same,pIC50,second compound 1 µM,6.48
same,pIC50,second compound 3.16 µM,7.11
same,pIC50,second compound 10 µM,> 7.50
same,"viability, T/C",[1],97%
same,"viability, T/C",[2],82.7%
same,"viability, T/C",[3],118%
same,"viability, T/C",[4],78.1%
same,"viability, T/C",[5],73.6%
same,"viability, T/C",[6],72%
same,"viability, T/C",[7],117%
same,"viability, T/C",[8],113%
same,"viability, T/C",[9],93.8%
same,"viability, T/C",[10],77.3%
same,"viability, T/C",[11],66%
same,"viability, T/C",[12],46.4%
same,"viability, T/C",[13],79.2%
same,"viability, T/C",[14],84.8%
same,"viability, T/C",[15],69.9%
same,"viability, T/C",[16],66.3%
same,"viability, T/C",[17],51.2%
same,"viability, T/C",[18],36.5%
same,"viability, T/C",[19],61.1%
same,"viability, T/C",[20],52%
same,"viability, T/C",[21],55.5%
same,"viability, T/C",[22],42%
same,"viability, T/C",[23],41.3%
same,"viability, T/C",[24],37.3%
same,"viability, T/C",[25],56.3%
same,"viability, T/C",[26],48.2%
same,"viability, T/C",[27],43.3%
same,"viability, T/C",[28],42.9%
same,"viability, T/C",[29],41.5%
same,"viability, T/C",[30],39.2%
same,"viability, T/C",[31],47%
same,"viability, T/C",[32],45.3%
same,"viability, T/C",[33],44.5%
same,"viability, T/C",[34],39.9%
same,"viability, T/C",[35],35.5%
same,"viability, T/C",[36],30.8%
O=c1[nH]cc(F)c(=O)[nH]1 + Cc1cnc(CNC(=O)c2c(=O)c3ccc(N4CCCN(C)CC4)nc3n3c2sc2ccccc23)cn1,pIC50,second compound 0.0316 µM,< 5.00
same,pIC50,second compound 0.1 µM,< 5.00
same,pIC50,second compound 0.316 µM,< 5.00
same,pIC50,second compound 1 µM,< 5.00
same,pIC50,second compound 3.16 µM,< 5.00
same,pIC50,second compound 10 µM,> 7.50
same,"viability, T/C",[1],98.6%
same,"viability, T/C",[2],92.1%
same,"viability, T/C",[3],114%
same,"viability, T/C",[4],82.9%
same,"viability, T/C",[5],77%
same,"viability, T/C",[6],65.4%
same,"viability, T/C",[7],94.6%
same,"viability, T/C",[8],97.7%
same,"viability, T/C",[9],107%
same,"viability, T/C",[10],76.2%
same,"viability, T/C",[11],76.1%
same,"viability, T/C",[12],65%
same,"viability, T/C",[13],78.3%
same,"viability, T/C",[14],82.6%
same,"viability, T/C",[15],81.4%
same,"viability, T/C",[16],76.3%
same,"viability, T/C",[17],68.5%
same,"viability, T/C",[18],62.8%
same,"viability, T/C",[19],51.3%
same,"viability, T/C",[20],51.8%
same,"viability, T/C",[21],62.5%
same,"viability, T/C",[22],56.8%
same,"viability, T/C",[23],55.6%
same,"viability, T/C",[24],48.3%
same,"viability, T/C",[25],54.8%
same,"viability, T/C",[26],50.1%
same,"viability, T/C",[27],49%
same,"viability, T/C",[28],44.2%
same,"viability, T/C",[29],63.6%
same,"viability, T/C",[30],53.9%
same,"viability, T/C",[31],46.4%
same,"viability, T/C",[32],45.7%
same,"viability, T/C",[33],54.5%
same,"viability, T/C",[34],52.5%
same,"viability, T/C",[35],54.5%
same,"viability, T/C",[36],34.9%
